# Data from patent publication US6828450B2, “Triptycene analogs” (Kansas State University Research Foundation, priority 2000, dated 2004).
# Like-named read-outs stand apart in the source and are kept apart here.
# Test system: HL-60-R8 cells
# Assay: Nucleoside transport in HL-60-R8 cells
# Assay type: cell-based, human
# Conditions: 15-min preincubation, 30 s
# Excerpt: FIG. 15. Comparison of the concentration-dependent inhibitions of the cellular transport of purine (A) and pyrimidine (B) nucleosides by DAU (open symbols) and TT2 (closed symbols) in HL-60-S (circles), HL-60-RV (squares) and HL-60-R8 (triangles) cells in vitro. Results are expressed as % of ^3H-adenosine (26,032±2,239 cpm, 100±9%, striped area in A) and ^3H-thymidine (17,934±1,398 cpm, 100±8%, striped area in B) transported into vehicle-treated control cells over 30 s.
# The MDR HL-60-RV and HL-60-R8 cells were developed in Melvin S. Center's laboratory (Kansas State University) and similarly maintained in RPMI 1640 medium in the absence of drugs (Marsh W, et al, Cancer Res 46: 4053-4057, 1986; McGrath T et al, and Center M S: Biochem Biophys Res Commun 145: 1171-1176, 1987; Marsh W and Center M S: Cancer Res 47: 5080-5086, 1987; McGrath T, et al, Biochem Pharmacol 38: 3611-3619, 1989; Marquardt D, et al, Cancer Res 50: 1426-1430, 1990; Marquardt D and Center M S: J Natl Cancer Inst 83: 1089-1109, 1991; Krishnamachary N and Center M S; Cancer Res 53: 3658-3661, 1993). Every 4 weeks, these HL-60-RV and HL-60-R8 sublines were exposed to 41 nM DAU for 48 h to stabilize their MDR phenotype. […] RFs were determined by dividing the IC50 of the MDR cells by that of the sensitive WT parent cell line. […]
smiles,measurement,setting,value
"COC1=CC(=O)C2=C(C1=O)C1C3=C(C(=O)C=CC3=O)C2c2ccccc21 (centres unmarked) [TT2, 2-Methoxy-9,10-dihydro-9,10-[1′,2′]benzenoanthracene-1,4,5,8-tetraone]",IC50,"purine nucleoside, read-out: IC50, cellular transport of 3H-adenosine in HL-60-R8 cells",3700 nM
same,IC50,"pyrimidine nucleoside, read-out: IC50, cellular transport of 3H-thymidine in HL-60-R8 cells",2300 nM
